Reference: article PMC10400593, “Molecular insights into Spindlin1-HBx interplay and its impact on HBV transcription from cccDNA minichromosome” (Nature Communications, 2023)
Several values for one entry are separate records, joined by “and”; a condition that tells them apart may be missing. Equal values may be shown once. Entries after “also recorded” stand apart in the source; their conditions may differ. Read-outs that look alike come from different tables or passages of the source. Where no end group is shown, it is not given here.

Tests used:
human Spindlin1_50–262 [1] = target: T1, human Spindlin1_50–262 (Homo sapiens, UniProt Q9Y657); assay type: binding; set-up: Human Spindlin1_50–262 was cloned into pGEX-6P-1 vector containing an N-terminal GST tag; GST (N, cleaved yes); made in house; host or cells: E. coli BL21(DE3); conditions: 25 °C; for ΔS / ΔH / K (association constant): ITC, pH 7.5, free wild-type Spindlin1_50–262; for ΔH / N / K (association constant): mean ± SE; for N: ITC stoichiometry, free wild-type Spindlin1_50–262; for K (association constant): One Set of Binding Sites fit
Procedure: Cells were harvested and lysed in lysis buffer: 0.2 M NaCl, 20 mM Tris, pH 8.0 containing 1 mM fresh PMSF. After centrifugation, the GST-tagged Spindlin1_50–262 was purified by a GST affinity column and then the GST tag was cleaved on-column by a home-made P3C protease overnight. The tag-free protein was collected for an anion-exchange chromatography over a HiTrap Q HP column and Superdex G75 columns (GE Healthcare). The Spindlin1_50–262 protein was concentrated to 25 mg/ml in 0.15 M NaCl, 20 mM Tris, pH 8.0, aliquoted and stored at −80 °C for future use. All Spindlin1_50–262 mutants were generated by the QuikChange site-directed mutagenesis strategy and purified using the same procedure as described above.
(§1) Calorimetric experiments were conducted at 25 °C with a MicroCal PEAQ-ITC instrument (Malvern Instruments) as previously described. The Spindlin1_50–262 samples were extensively dialyzed against the buffer containing 20 mM HepesNa (pH 7.5) and 150 mM NaCl. Protein concentration was determined by absorbance spectroscopy at 280 nm. Peptide concentrations were determined by weighing in large quantities. Each ITC titration consisted of 17 successive injections with 0.4 μl for the first and 2.4 μl for the rest. The intervals between injections were 180 s, and the stirring speed was 750 rpm. […] Acquired calorimetric titration data were fitted at 95% confidence and analyzed using Origin 7.0 (GE Healthcare) using the One Set of Binding Sites fitting model. Data represent the mean ± SE. Detailed thermodynamic parameters of each titration are summarized in the Supplementary Table 2.

[2] = target: Spindlin1_50-262 & HBx2-21 (Homo sapiens, UniProt Q9Y657); conditions: ITC; for K (association constant): 25 °C, pH 7.5, mean ± SE; for N / ΔH: mean ± SE
Procedure: Cells were harvested and lysed in lysis buffer: 0.2 M NaCl, 20 mM Tris, pH 8.0 containing 1 mM fresh PMSF. […] The tag-free protein was collected for an anion-exchange chromatography over a HiTrap Q HP column and Superdex G75 columns (GE Healthcare).
as §1, with “Protein” for “Calorimetric experiments were conducted at 25 °C with a MicroCal PEAQ-ITC instrument (Malvern Instruments) as previously described. The Spindlin1_50–262 samples were extensively dialyzed against the buffer containing 20 mM HepesNa (pH 7.5) and 150 mM NaCl. Protein”

human Spindlin1_50–262 [3] = target: T1, human Spindlin1_50–262; test: ITC
HBx = conditions: Huh7 cells, 48 h after co-transfection, WB
Procedure: (§2) Mutations in full-length Spindlin1 were generated by site-directed mutagenesis and confirmed by DNA sequencing. Plasmid DNA and siRNA transfections were performed using Lipofectamine 3000 reagent (Invitrogen) and Lipofectamine RNAiMAX (Invitrogen) according to the manufacturer’s protocol, respectively.

HBeAg = conditions: ectopic expression in Spindlin1 knockdown cells
Procedure: as §2
For infections, cells were incubated with viral supernatants in the presence of 10 µg/ml polybrene.
For siRNA knockdown experiments of HepG2-NTCP cells, the siRNAs (sequences are listed in the Supplementary Table 4) were transfected at 3dpi, and incubated with cells for 24 h. Then the cells were maintained in PMM with 2% FBS with regular medium changing every other day. For cccDNA formation experiment, the siRNAs were transfected 48 h before infection and incubated with cells for 24 h. Then the cells were cultured with PMM medium for another […]. The cells were then infected with HBV at 800GEQ in the presence of 5% PEG8000 for 24 h at 37 °C.
HBeAg levels of HBV infected cells were measured using ELISA kits (Wantai Pharm Inc). Supernatants from HBV infected cells were harvested at each time point examined in the various assays and were diluted 4-fold with DMEM before ELISA.

HBV RNA = test: Rescue of HBV transcription/expression in Spindlin1 knockdown HepG2-NTCP cells; assay type: cell-based; conditions: ectopic expression in Spindlin1 knockdown cells
Procedure: Cells were harvested with TRIzol™ Reagent (Invitrogen, Carlsbad, CA). The RNA was extracted and precipitated with equal volumes of isopropanol. The RNA pellet was washed with 75% ethanol and dissolved in DEPC-treated H2O. The RNA solution with 1xRNA loading buffer was incubated at 65 °C heat block for 5 min and put on ice for 5 min. Then the RNA sample was subjected to 1.2% agarose gel electrophoresis (with 1xMOPS buffer and 5% formaldehyde solution) and transferred onto Amersham Hybond-N+ membrane (GE Healthcare). After UV crosslinking, the RNA was detected with DIG-labeled full-length HBV genome and DIG-labeled GAPDH probe (DIG-high prime DNA-labeling and detection starter kit II, Roche, cat. No. 11585614910).

Human Spindlin1 50-262 [4] = target: T2, Human Spindlin1 50-262 (human, UniProt Q9Y657 50-262); test: ITC; conditions: both partners purified
T2 construct: also called SPIN1; not shown: GST, N-terminal, cleaved

Human Spindlin1 50-262 [5] = target: T2, Human Spindlin1 50-262; test: ITC; conditions: both partners purified; remark: listed apart in the source
Human Spindlin1 50-262 [6] = target: T2, Human Spindlin1 50-262; test: ITC; conditions: both partners purified; remark: listed apart in the source
Human Spindlin1 50-262 [7] = target: T2, Human Spindlin1 50-262; test: ITC; conditions: both partners purified; remark: listed apart in the source
[8] = listed as wild-type (WT) Spindlin1

Spindlin1_50-262 & HBx2-21, sequence (Q9Y657 whole entry, looked up): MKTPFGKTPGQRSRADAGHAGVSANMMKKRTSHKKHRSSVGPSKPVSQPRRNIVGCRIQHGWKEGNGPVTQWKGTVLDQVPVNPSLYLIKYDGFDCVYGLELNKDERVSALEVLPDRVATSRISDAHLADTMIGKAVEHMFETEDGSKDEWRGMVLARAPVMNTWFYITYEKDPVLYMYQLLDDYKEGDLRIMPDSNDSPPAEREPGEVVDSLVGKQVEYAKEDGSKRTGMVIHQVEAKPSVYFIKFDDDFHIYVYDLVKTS
T2 sequence (Q9Y657 50-262): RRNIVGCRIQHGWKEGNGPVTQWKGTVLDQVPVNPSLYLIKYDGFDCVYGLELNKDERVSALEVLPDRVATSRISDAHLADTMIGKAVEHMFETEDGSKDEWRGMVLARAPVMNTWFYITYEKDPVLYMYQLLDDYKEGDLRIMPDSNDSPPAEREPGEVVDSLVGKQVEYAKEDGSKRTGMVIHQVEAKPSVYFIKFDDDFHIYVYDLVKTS
T1 sequence (Q9Y657 50-262): as above

Molecule: AARLCCQLDPARDVLCLRPV-NH2 [HBx-D2-21, HBx-D N-terminal motif peptide]
- ΔS (human Spindlin1_50–262 [1]): 18.0 cal/mol/deg
- ΔH (human Spindlin1_50–262 [1]): -3096± 42.71 kal/mol

Molecule: AARLCCQLDSARDVLLLRPF-NH2 [WHx, woodchuck HBx N-terminal motif peptide]
- ΔS (human Spindlin1_50–262 [1]): 9.96 cal/mol/deg
- ΔH (human Spindlin1_50–262 [1]): -4600± 130.4 kal/mol

Molecule: AARLCCQLDSSRDVLLLRPL-NH2 [GSHBx, ground squirrel HBx N-terminal motif peptide]
- ΔS (human Spindlin1_50–262 [1]): 25.3 cal/mol/deg
- ΔH (human Spindlin1_50–262 [1]): -987.3± 23.4 kal/mol

Molecule: ARTK(m e3)QTAR(me2a)KSTGGKAPRKQL-NH2 [H31-20 K4me3R8me2a]
- N (human Spindlin1_50–262 [1]): 1.0± 0.004
- ΔS (human Spindlin1_50–262 [1]): -23.6 cal/mol/deg
- K (association constant) (human Spindlin1_50–262 [1]): 3.2e+07 ± 5.15e+06 M⁻¹
- ΔH (human Spindlin1_50–262 [1]): -17280± 115.8 kal/mol
- ΔS [2]: -22.0 cal/mol/deg
- K (association constant) [2]: 4.74e+07 ± 7.62e+06 M⁻¹
- N [2]: 1.0± 0.003
- ΔH [2]: -17040± 96.9 kal/mol

Molecule: ARTK(m e3)QTARK(me2)STGGKA-NH2 [H31-15 K4me3K9me2]
- N (human Spindlin1_50–262 [1]): 1.0± 0.002
- ΔS (human Spindlin1_50–262 [1]): -15.3 cal/mol/deg
- K (association constant) (human Spindlin1_50–262 [1]): 4.18e+07 ± 4.82e+06 M⁻¹
- ΔH (human Spindlin1_50–262 [1]): -14960± 61.22 kal/mol
- ΔS [2]: -12.1 cal/mol/deg
- K (association constant) [2]: 1.74e+08 ± 9.28e+07 M⁻¹
- N [2]: 1.0± 0.004
- ΔH [2]: -14860± 139.6 kal/mol

Molecule: Ac-CSFSSAGPCALRFTSARRME-NH2 [HBx61-80, HBx array peptide]
- ΔS (human Spindlin1_50–262 [1]): -1.7 cal/mol/deg
- ΔH (human Spindlin1_50–262 [1]): -6319± 252.7 kal/mol

Molecule: Ac-GKGGAKRHRK (me3)VLRDNIQGIT-NH2 [H411-30 K20me3]
- N (human Spindlin1_50–262 [1]): 1.0± 0.016
- ΔS (human Spindlin1_50–262 [1]): -12.3 cal/mol/deg
- ΔH (human Spindlin1_50–262 [1]): -12920± 254.2 kal/mol
- N [2]: 0.9± 0.010 and 1.0± 0.001

Molecule: Ac-PARDVLCLRPIGAESRGRPL-NH2 [HBx11-30]
- ΔS (human Spindlin1_50–262 [1]): 8.2 cal/mol/deg
- ΔH (human Spindlin1_50–262 [1]): -3496± 197.8 kal/mol

Molecule: HBx2-21 V15R peptide
- stoichiometry N (human Spindlin1_50–262 [3]): 1

Molecule: HBx_(2–21) peptide (from UniProt Q69607) L18R
- Kd (human Spindlin1_50–262 [3]): 35.8 µM

Molecule: HBx_(2–21) peptide (from UniProt Q69607) V15R
- Kd (human Spindlin1_50–262 [3]): 14.4 µM

Molecule: HBx_(11–30) peptide
- fold weaker binding than HBx (2–21) (human Spindlin1_50–262 [3]): 44 fold

Molecule: HBx_(61–80) peptide
- fold weaker binding than HBx (2–21) (human Spindlin1_50–262 [3]): 55 fold

Molecule: K216S/V218R double mutant
- Interaction with HBx (Co-IP) (HBx): disrupted Spindlin1-HBx engagement both in vitro and in cellular context
- Interaction with HBx (Co-IP) (HBx; listed as Spindlin1 K216S/V218R): significantly compromised
- Restoration of HBeAg levels (HBeAg): not the K216S/V218R double mutant that effectively restored

Molecule: W72R
- Restoration of HBV transcription/expression (HBV RNA): not its H3K4me3 and H3K9me3-binding deficient mutants

Molecule: wild-type Spindlin1: ectopically expressed wild-type Spindlin1
- Restoration of HBV transcription/expression (HBV RNA): effectively restored the levels of HBV transcription and HBeAg; also recorded: restored HBV expression
- Restoration of HBV transcription/expression (HBV RNA; [8]): restore the levels of HBV transcription and HBeAg
- Restoration of HBeAg levels (HBeAg): effectively restored the levels of HBV transcription and HBeAg
- Restoration of HBeAg levels (HBeAg; [8]): restore the levels of HBV transcription and HBeAg

B1: HBx11-30 peptide (peptide)
peptide: Ac-PARDVLCLRPIGAESRGRPL-NH2
notes: source: synthetic peptide, bought: Scilight Biotechnology LLC
- Kd (Human Spindlin1 50-262 [4]): 45.9 µM
- Ka (Human Spindlin1 50-262 [5]): 22600 M⁻¹
- stoichiometry N (Human Spindlin1 50-262 [5]): 1.2

B2: HBx-D2-21 peptide (peptide)
peptide: AARLCCQLDPARDVLCLRPV-NH2
modifications: cysteine pairing not given here
notes: as for B1
- Ka (Human Spindlin1 50-262 [5]): 1.56e+06 M⁻¹
- stoichiometry N (Human Spindlin1 50-262 [5]): 0.951
- Kd (Human Spindlin1 50-262 [6]): 0.7 µM

B3: WHx2-21 peptide (woodchuck HBx) (peptide)
peptide: AARLCCQLDSARDVLLLRPF-NH2
modifications: cysteine pairing not given here
notes: also called FWHx; source: synthetic peptide, bought: Scilight Biotechnology LLC
- Ka (Human Spindlin1 50-262 [5]): 354000 M⁻¹
- stoichiometry N (Human Spindlin1 50-262 [5]): 0.9
- Kd (Human Spindlin1 50-262 [6]): 2.9 µM

B4: GSHBx2-21 peptide (ground squirrel HBx) (peptide)
peptide: AARLCCQLDSSRDVLLLRPL-NH2
modifications: cysteine pairing not given here
notes: as for B1
- Ka (Human Spindlin1 50-262 [5]): 1.83e+06 M⁻¹
- stoichiometry N (Human Spindlin1 50-262 [5]): 1.1
- Kd (Human Spindlin1 50-262 [6]): 0.62 µM

B5: HBx61-80 peptide (peptide)
peptide: Ac-CSFSSAGPCALRFTSARRME-NH2
modifications: cysteine pairing not given here
notes: as for B1
- Kd (Human Spindlin1 50-262 [4]): 55.5 µM
- Ka (Human Spindlin1 50-262 [5]): 18200 M⁻¹
- stoichiometry N (Human Spindlin1 50-262 [5]): 1

B6: H3 1-15 K4me3K9me2 peptide (peptide)
peptide: ARTK(me3)QTARK(me2)STGGKA
notes: also called H3K4me3K9me2; source: synthetic peptide, bought: Scilight Biotechnology LLC
- Ka (Human Spindlin1 50-262 [5]): 4.18e+07 M⁻¹
- Kd (Human Spindlin1 50-262 [7]): 0.0242 µM
